Bridge positions count the residues as written; N and C are the ends. Square brackets hold non-standard residues; d marks the D form. Ends that are not written are not given here. Peptide text beside a SMILES is read from it. Sar = CNCC(=O)O
Key:
[1] = test system: methicillin resistant Staphylococcus aureus (MRSA); assay: Minimal inhibitory concentration, MRSA; assay type: cell-based
Protocol: (§1) The minimal inhibitory concentrations (MICs) of a variety of protegrins were determined against the following organisms: methicillin resistant Staphylococcus aureus (MRSA), Pseudomonas aeruginosa (Psa), vancomycin resistant Enterococcus fecium (VREF), Candida albicans (Candid) and Escherichia coli (E. Co), and are shown in Table 9.

[2] = test system: Pseudomonas aeruginosa (Psa); assay: Minimal inhibitory concentration, Psa; assay type: cell-based
Protocol: as §1

[3] = test system: vancomycin resistant Enterococcus fecium (VREF); assay: Minimal inhibitory concentration, VREF; assay type: cell-based
Protocol: as §1

[4] = Autoclaving, retained antimicrobial activity; assay type: physicochemical; details: autoclaved
[5] = test system: lipid polysaccharide (LPS) of E. coli strain 0.55B5; assay: Limulus amebocyte lysate (LAL) test for endotoxin binding; assay type: biochemical
[6] = Radial diffusion assay in 25 mM borate buffer (Table 4); assay type: cell-based; details: buffer (25 mM borate buffer, pH 7.4)
Protocol: Contact lens solutions are typically formulated with borate buffered physiological saline and may or may not contain EDTA in addition. Protegrins in the form of the synthetic PG-3 amide and synthetic PG acid were tested generally in the assay described in Example 1 wherein all underlay gels contain 25 mM borate buffer, pH […] tryptocase soy broth ([…] TSB powder) and […]. Additions included either 100 mM NaCl, 1 mM EDTA or a combination thereof. Other test compounds used as controls were the defensin NP-1 and lysozyme. Dose response curves were determined.

Candida albicans = assay: Radial diffusion assay in 25 mM borate buffer, Candida albicans; assay type: cell-based
L. monocytogenes = assay: Radial diffusion assay in 25 mM borate buffer, L. monocytogenes; assay type: cell-based
[7] = test system: N. gonorrhoeae strains FA 19 and F 62; details: strains FA 19 and F 62
Protocol: Nonpiliated transparent variants of strains FA 19 and F 62 were propagated on GCB agar plates containing glucose and iron supplements overnight at 37° C. under 3.8% V/V CO2. These strains were chosen for their adaptability to the assay.
The overnight growth is removed from the agar plate and suspended in GCB broth containing supplements and sodium bicarbonate and grown with shaking at 37° C. to mid log phase. The culture is diluted 1:100 in GCB broth to give about 10^6 CFU/ml and serial dilutions were plated onto GCB agar.
Ten μl of each dilution is added to a sterile polystyrene tube containing 90 μl of diluted bacteria and the tubes are shaken at 37° C. for 45 minutes. The contents are serially diluted 1:10 and plated on to GCB agar plates which are incubated in a CO2 incubator. CFU are counted after 24 hours and the log bactericidal activity calculated.

E. coli ML-35P = assay: Radial diffusion assay in agarose gels, E. coli; assay type: cell-based
[8] = test system: Listeria monocytogenes, strain EGD; assay: Radial diffusion assay in agarose gels, L. monocytogenes; assay type: cell-based; details: radial diffusion, underlay agar pH 6.5
Protocol: Aliquots (66 μl) of each fraction were dried by vacuum centrifugation and resuspended in 6.6 μl of 0.01% acetic acid. Five μl samples of this concentrate were tested for antimicrobial activity against E. coliML-3, L. monocytogenes, strain EGD and C. albicans, strain 820, using radiodiffusion and gel overlay techniques as described by Lehrer, R. I. et al. J Immunol Meth (1991) 137:167-173. […] The units of activity in the radial diffusion assay were measured as described; 10 units correspond to a 1 mm diameter clear zone around the sample well. Activity was found in a large number of fractions.
The radial diffusion assay in agarose gels described in Example 1 was also used to test the activity of the purified protegrins. FIGS. 4a, 4b and 4c show the results against three test organisms in units described as above.
The antimicrobial activity of the linearalized forms was also compared with that of the native protegrins. Both linearalized and cyclic forms of the protegrins tested continue to show antimicrobial activity, although the effectiveness of these peptides as antimicrobials depends on the nature of the target organism and on the test conditions. The antimicrobial activity of native PG-1 and its linearalized form (cam-PG-1) and PG-3 and its linearalized form (cam-PG-3) were tested according to the procedure set forth in Example 1 as described by Lehrer, R. I. et al. J Immunol Meth (1991) 137:167-173.
Using standard solid phase techniques, a protegrin having the amino acid sequence of PG-1, but wherein every amino acid is in the D form was prepared. This form of protegrin was tested against E. coli, L. monocytogenes, C. albicans and other microbes in the absence and presence of protease and otherwise as described for the radiodiffusion assay in agarose gels set forth in Example 1.
The kite and bullet PG-1 compounds prepared in Example 12 were tested for antimicrobial activity using the radial diffusion assay described in Example 1 as published by Lehrer, R. I. et al., J Immunol Meth (1991) 137:167-173, except that the underlay agars contained […] sodium phosphate buffer with a final pH of 7.4. As described in Example 1, 0.3 mg/ml tripticase soy broth powder and 1% agarose were used as well in the underlay agar. In some cases 100 mM NaCl or RPMI plus 2.5% normal human serum (NHS) was added to the agar.

C. albicans, strain 820 = assay type: cell-based, Candida albicans
Protocol: Similarly, using C. albicans as a target organism, underlayers were prepared with 10 mM sodium phosphate with and without 10% normal human serum.

human leukocyte elastase = human leukocyte elastase (Homo sapiens, UniProt P08246); assay type: in vitro ADME; details: pH 7
[9] = target: human leukocyte cathepsin G (Homo sapiens, UniProt P08311); assay type: in vitro ADME; details: pH 7
E. coli = assay: Antimicrobial activity with and without lysozyme in borate buffered saline; assay type: cell-based; details: presence vs absence of lysozyme
Excerpt: This effect was more pronounced when the PG-3 was autoclaved and similar patterns were obtained for both the free-acid form and the amide. Accordingly, the protegrins may be used as preservatives in such compositions or as antimicrobials for treatment of eye infections.

pepsin = details: 4 hours at pH 2.0 with 0.5 μg/ml pepsin, then neutralized
[10] = test system: Trichomonas vaginallis strain C1 (ATCC 30001); strains MR and TV; assay: Trichomonas vaginallis exposure assay; details: 25 μg/ml
[11] = 2.5 μg peptide in 0.2 ml, LPS 0.05 endotoxin unit/ml
[12] = radial diffusion, underlay agar pH 6.5
[13] = 5 μg peptide in 0.2 ml, LPS 0.05 endotoxin unit/ml
[14] = 10 μg peptide in 0.2 ml, LPS 0.05 endotoxin unit/ml
[15] = 25 mM borate buffer, listed as nPG-3
[16] = borate buffer + 120 mM NaCl, listed as nPG-3
[17] = borate buffer + EDTA & NaCl, listed as nPG-3

human leukocyte elastase, sequence (P08246 30-267): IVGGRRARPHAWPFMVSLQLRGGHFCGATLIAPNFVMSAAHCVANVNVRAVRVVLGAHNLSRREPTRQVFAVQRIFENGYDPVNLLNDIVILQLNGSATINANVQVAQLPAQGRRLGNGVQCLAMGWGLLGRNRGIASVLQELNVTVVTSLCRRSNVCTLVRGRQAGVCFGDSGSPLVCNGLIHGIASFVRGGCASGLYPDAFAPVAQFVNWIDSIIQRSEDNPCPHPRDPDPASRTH
human leukocyte cathepsin G, sequence (P08311 21-244): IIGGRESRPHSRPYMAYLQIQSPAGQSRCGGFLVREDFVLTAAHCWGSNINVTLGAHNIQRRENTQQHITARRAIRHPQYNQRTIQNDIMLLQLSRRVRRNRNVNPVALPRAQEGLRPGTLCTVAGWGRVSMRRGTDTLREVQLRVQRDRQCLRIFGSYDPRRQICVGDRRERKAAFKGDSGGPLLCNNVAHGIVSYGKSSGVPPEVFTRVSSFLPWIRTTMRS

Compound | minimal inhibitory concentration (MIC) MRSA [1] | minimal inhibitory concentration (MIC) Psa [2] | minimal inhibitory concentration (MIC) VREF [3] | antimicrobial activity against E. coli, L. monocytogenes and C. albicans after autoclaving [4] | gel formation in LAL test [5, 11] | ESTIMATED MINIMAL FUNGICIDAL CONCENTRATIONS [6] [µg/mL] | ESTIMATED MINIMAL FUNGICIDAL CONCENTRATIONS (Candida albicans; 25 mM borate buffer) [µg/mL] | ESTIMATED MINIMAL FUNGICIDAL CONCENTRATIONS (Candida albicans; borate buffer + 120 mM NaCl) [µg/mL] | ESTIMATED MINIMAL FUNGICIDAL CONCENTRATIONS (Candida albicans; borate buffer + EDTA & NaCl) [µg/mL] | ESTIMATED MINIMAL BACTERICIDAL CONCENTRATIONS (L. monocytogenes; 25 mM borate buffer) [µg/mL] | ESTIMATED MINIMAL BACTERICIDAL CONCENTRATIONS (L. monocytogenes; borate buffer + 120 mM NaCl) [µg/mL] | ESTIMATED MINIMAL BACTERICIDAL CONCENTRATIONS (L. monocytogenes; borate buffer + EDTA & NaCl) [µg/mL] | log reduction in CFU per ml [7] [log] | gel formation in LAL test [5, 13] | gel formation in LAL test [5, 14] | further results
R-G-G-R-L-C-Y-C-R-X-R-F-C-V-C-V-G-R-OH (X=NMeG) (RGGRLCYCR[Sar]RFCVCVGR-OH; ends and bridges not checked) [IB-341] | 5.33 | 2 | 1 |  |  |  |  |  |  |  |  |  |  |  |  | 
CC(C)C[C@H](NC(=O)CNC(=O)CNC(=O)CNC(=O)[C@@H](N)CCCNC(=N)N)C(=O)N[C@H]1CSSC[C@@H](C(=O)N[C@H](C(=O)NCC(=O)N[C@@H](CCCNC(=N)N)C(N)=O)C(C)C)NC(=O)[C@H](C(C)C)NC(=O)[C@@H]2CSSC[C@H](NC(=O)[C@H](Cc3ccc(O)cc3)NC1=O)C(=O)N[C@@H](CCCNC(=N)N)C(=O)N[C@@H](CCCNC(=N)N)C(=O)N[C@@H](CCCNC(=N)N)C(=O)N[C@@H](Cc1ccccc1)C(=O)N2 [sPG-3 amide] (H-RGGGLCYCRRRFCVCVGR-NH2; disulfide 6-15, 8-13; N-terminus assumed) |  |  |  | retaining full antimicrobial activity in all cases | no gel | 13.0 | 19.0 | 7.7 | 7.0 | 21.0 | 5.7 | 5.2 | > 5 |  |  | gel formation in LAL test ([5]; 0.5 μg peptide, 0.05 E.U.): no gel; gel formation in LAL test ([5]; 1.0 μg peptide, 0.05 E.U.): no gel; gel formation in LAL test ([5]; 1.0 μg peptide, 0.10 E.U.): no gel; gel formation in LAL test ([5]; 1.0 μg peptide, 0.25 E.U.): no gel; gel formation in LAL test ([5]; 2.5 μg peptide, 0.05 E.U.): no gel; gel formation in LAL test ([5]; 2.5 μg peptide, 0.10 E.U.): no gel; gel formation in LAL test ([5]; 2.5 μg peptide, 0.25 E.U.): no gel
CC(C)C[C@H](NC(=O)CNC(=O)CNC(=O)CNC(=O)[C@@H](N)CCCNC(=N)N)C(=O)N[C@H]1CSSC[C@@H](C(=O)N[C@H](C(=O)NCC(=O)N[C@@H](CCCNC(=N)N)C(N)=O)C(C)C)NC(=O)[C@H](C(C)C)NC(=O)[C@@H]2CSSC[C@H](NC(=O)[C@H](Cc3ccc(O)cc3)NC1=O)C(=O)N[C@@H](CCCNC(=N)N)C(=O)N[C@@H](CCCNC(=N)N)C(=O)N[C@@H](CCCNC(=N)N)C(=O)N[C@@H](Cc1ccccc1)C(=O)N2 [PG-3, R-G-G-G-L-C-Y-C-R-R-R-F-C-V-C-V-G-R] (H-RGGGLCYCRRRFCVCVGR-NH2; disulfide 6-15, 8-13; N-terminus assumed) |  |  |  |  |  |  |  |  |  |  |  |  |  | no gel | no gel | activity against E. coli in NaCl (FIG. 5b) (E. coli ML-35P; in the presence of 100 mM NaCl): retain their activity; antibacterial activity against E. coli (FIG. 4a) (E. coli ML-35P; [12]): more effective against E. coli ML-35P than HNP-1 and only slightly less effective than NP-1; antibacterial activity against Listeria monocytogenes (FIG. 4b) [8]: effective; activity against Candida albicans in fetal calf serum (FIG. 5c) (C. albicans, strain 820; 90% fetal calf serum): retained; activity against C. albicans in NaCl (FIG. 5a) (C. albicans, strain 820; in the presence of 100 mM NaCl): retain their activity; antifungal activity against Candida albicans (FIG. 4c) (C. albicans, strain 820; [12]): effective; degradation by human leukocyte elastase (human leukocyte elastase): not degraded; degradation by human leukocyte cathepsin G [9]: not degraded; gel formation in LAL test, cyclic vs linearalized (Table 3) ([5]; 2.5 μg peptide): no gel; gel formation in LAL test ([5]; 2.5 μg peptide in 0.2 ml, LPS 0.05 endotoxin unit/ml, listed as nPG-3): trace; gel formation in LAL test, cyclic vs linearalized (Table 3) ([5]; 5 μg peptide): no gel; ESTIMATED MINIMAL FUNGICIDAL CONCENTRATIONS (Candida albicans; [15]): 32.0 µg/mL; ESTIMATED MINIMAL FUNGICIDAL CONCENTRATIONS (Candida albicans; [16]): 9.0 µg/mL; ESTIMATED MINIMAL FUNGICIDAL CONCENTRATIONS (Candida albicans; [17]): 8.0 µg/mL; ESTIMATED MINIMAL BACTERICIDAL CONCENTRATIONS (L. monocytogenes; [15]): 25.0 µg/mL; ESTIMATED MINIMAL BACTERICIDAL CONCENTRATIONS (L. monocytogenes; [16]): 7.0 µg/mL; ESTIMATED MINIMAL BACTERICIDAL CONCENTRATIONS (L. monocytogenes; [17]): 5.7 µg/mL; effect of lysozyme on effectiveness against E. coli (E. coli): enhanced the effectiveness; residual antimicrobial activity against C. albicans, E. coli and L. monocytogenes after pepsin (pepsin): fully retained; motility of T. vaginallis [10]: retained their motility
R-G-G-R-L-C-Y-C-R-X-R-F-C-V-C-V-G-R (X=NMeG) (RGGRLCYCR[Sar]RFCVCVGR-NH2; ends and bridges not checked) [IB-342] | 4 | 1.67 | 0.83 |  |  |  |  |  |  |  |  |  |  |  |  | 
CC(C)C[C@H](NC(=O)CNC(=O)CNC(=O)CNC(=O)[C@@H](N)CCCNC(=N)N)C(=O)N[C@H]1CSSC[C@@H](C(=O)N[C@H](C(=O)NCC(=O)N[C@@H](CCCNC(=N)N)C(=O)O)C(C)C)NC(=O)[C@H](C(C)C)NC(=O)[C@@H]2CSSC[C@H](NC(=O)[C@H](Cc3ccc(O)cc3)NC1=O)C(=O)N[C@@H](CCCNC(=N)N)C(=O)N[C@@H](CCCNC(=N)N)C(=O)N[C@@H](CCCNC(=N)N)C(=O)N[C@@H](Cc1ccccc1)C(=O)N2 [sPG-3 acid] (H-RGGGLCYCRRRFCVCVGR-OH; disulfide 6-15, 8-13; N-terminus assumed) |  |  |  | retaining full antimicrobial activity in all cases | trace | 15.0 | 19.0 | 9.2 | 9.3 | 30.0 | 7.0 | 7.0 | > 5 | no gel | no gel | 

From patent US6653442B1, “Protegrins” (priority 1993, dated 2003)
